This passage reports GI50 and TGI results from PubChem BioAssay (NCI).

Values joined by “and” are separate entries in the source; they are usually repeats but may differ in a detail not shown here. Equal entries are not always repeated.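 Interpolation was linear, between the two tested concentrations surrounding the appropriate level; five concentrations were tested over 48 hours in 96-well plates. At the GI50, growth is halved. TGI marks complete inhibition of growth.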 A value given as a limit tells only on which side of the number the result lay.

Among the test systems are SK-MEL-5 melanoma; BT-549 breast; SNB-19 CNS; HCT-116 colon; DU-145 prostate; U251 CNS; SK-MEL-28 melanoma; MOLT-4 leukemia; SN12C renal; NCI-H460 lung.
What all share (assay): NCI-60 cell line screen, 48 h

Regarding `C[C@@H](NC(=O)c1ncnc(N)c1Cl)c1ncc(C(=O)Nc2cc(C(F)(F)F)c(Cl)cn2)s1`, the GI50 is 8.91 µM in the experiment with SK-MEL-5 melanoma; 22.1 µM in the experiment on BT-549 breast; 26.6 µM in the experiment on SNB-19 CNS; 3.17 µM in the experiment on HCT-116 colon; 26.7 µM in the experiment with DU-145 prostate; 19.5 µM in the experiment on U251 CNS. Moreover, the GI50 is 0.696 µM in the experiment on SK-MEL-28 melanoma, 23 µM with MOLT-4 leukemia, 19.9 µM in the experiment on SN12C renal and 20.4 µM in the experiment with NCI-H460 lung. Further, the TGI in the experiment with SK-MEL-5 melanoma is 24.1 µM; with BT-549 breast, 81.2 µM; with SNB-19 CNS, over 100 µM; in the experiment with HCT-116 colon, over 68.9 µM; in the experiment on DU-145 prostate, over 82.7 µM; with U251 CNS it was over 68.5 µM. Also, the TGI in the experiment with SK-MEL-28 melanoma is 15.8 µM; in the experiment on MOLT-4 leukemia, 68.7 µM; in the experiment with SN12C renal, over 93.7 µM; with NCI-H460 lung, 79.9 µM.

Regarding `C/C(=N/O)c1ccc2c(c1)/C(=N/O)c1ccccc1-2`, the GI50 in the experiment on SK-MEL-5 melanoma was 17 µM; in the experiment on BT-549 breast it was 21.4 µM; in the experiment on SNB-19 CNS, 33.8 µM; with HCT-116 colon it was 20.7 µM; with DU-145 prostate, 26.4 µM; with U251 CNS, 21.2 µM. For the same compound, the GI50 with SK-MEL-28 melanoma is 17.9 µM; with MOLT-4 leukemia, 20.2 µM; with SN12C renal, 19.8 µM; with NCI-H460 lung, 21.1 µM. In addition, the TGI with SK-MEL-5 melanoma was 31.2 µM; in the experiment with BT-549 breast it was 50.4 µM; in the experiment with SNB-19 CNS it was over 100 µM; with HCT-116 colon it was 38.5 µM; with DU-145 prostate, 71 µM; with U251 CNS, 46 µM. Further, the TGI in the experiment with SK-MEL-28 melanoma amounted to 39.9 µM; with MOLT-4 leukemia it was 49.4 µM; in the experiment on SN12C renal it was 44.5 µM; with NCI-H460 lung it was 46.4 µM.

Take `CCN(CC)c1ccc2nc3c4ccccc4c(=O)cc-3n(-c3ccccc3)c2c1`: the GI50 with SK-MEL-5 melanoma was 0.444 µM; in the experiment with BT-549 breast, 1.95 µM; with SNB-19 CNS, 3.32 µM; in the experiment with HCT-116 colon, 1.35 µM; in the experiment on DU-145 prostate, 2.66 µM; in the experiment with U251 CNS it was 1.49 µM. Moreover, the GI50 in the experiment on SK-MEL-28 melanoma is 2.05 µM; in the experiment with MOLT-4 leukemia, 2.36 µM; in the experiment on SN12C renal, 2.72 µM; in the experiment with NCI-H460 lung it was 2.26 µM. The TGI in the experiment with SK-MEL-5 melanoma is 1.74 µM; in the experiment on BT-549 breast, 5.06 µM; with SNB-19 CNS, over 100 µM; with HCT-116 colon, 3.27 µM; in the experiment with DU-145 prostate, 9.75 µM; in the experiment with U251 CNS, 6.61 µM. The TGI in the experiment with SK-MEL-28 melanoma was found to be 7.07 µM; in the experiment on MOLT-4 leukemia, 7.48 µM; with SN12C renal it was 40.2 µM; in the experiment with NCI-H460 lung it was 6.46 µM.

For `O=C1C=CC(=Nc2cccc3c(N=C4C=CC(=O)O4)cccc23)O1`, the TGI in the experiment with SK-MEL-5 melanoma is over 100 µM; in the experiment with BT-549 breast, over 100 µM; with SNB-19 CNS it was over 100 µM; in the experiment with HCT-116 colon it was 53.1 µM; with DU-145 prostate it was over 100 µM; in the experiment with U251 CNS, over 100 µM. Further, the TGI in the experiment with SK-MEL-28 melanoma was over 100 µM; with MOLT-4 leukemia it was 19.8 µM; with SN12C renal it was 77.9 µM; in the experiment with NCI-H460 lung it was over 100 µM.

On to `CC(C)(C)NC(=O)[C@H]1CC[C@H]2[C@@H]3CC[C@H]4NC(=O)C=C[C@]4(C)[C@H]3CC[C@]12C`, for which the GI50 in the experiment with SK-MEL-5 melanoma was 43.1 µM and > 100 µM; with BT-549 breast it was 81.9 µM and > 100 µM; in the experiment with SNB-19 CNS, over 100 µM; in the experiment on HCT-116 colon, over 100 µM; in the experiment with DU-145 prostate, over 100 µM; with U251 CNS, over 100 µM. In addition, the GI50 in the experiment on SK-MEL-28 melanoma is over 100 µM; with MOLT-4 leukemia it was 66 µM and > 100 µM; in the experiment on SN12C renal it was over 100 µM; in the experiment on NCI-H460 lung, over 100 µM. The TGI with SK-MEL-5 melanoma, with BT-549 breast, with SNB-19 CNS, in the experiment with HCT-116 colon, in the experiment on DU-145 prostate and in the experiment on U251 CNS was over 100 µM each time. Also, the TGI with SK-MEL-28 melanoma, in the experiment on MOLT-4 leukemia, in the experiment with SN12C renal and in the experiment with NCI-H460 lung was over 100 µM each time.

As to `CCCCCC[C@@H](C)Nc1nc2ccccc2c2occc12`, the GI50 was 2.89 µM with SK-MEL-5 melanoma; 3.05 µM with BT-549 breast; 17.7 µM in the experiment on SNB-19 CNS; 4.87 µM in the experiment with HCT-116 colon; 9.79 µM in the experiment on DU-145 prostate; 11.7 µM in the experiment on U251 CNS. The GI50 is 18.5 µM in the experiment with SK-MEL-28 melanoma, 20.9 µM in the experiment with MOLT-4 leukemia, 12.8 µM in the experiment with SN12C renal and 4.19 µM in the experiment on NCI-H460 lung. Also, the TGI in the experiment with SK-MEL-5 melanoma stood at 18 µM; in the experiment with BT-549 breast, 18.2 µM; in the experiment on SNB-19 CNS it was 50.1 µM; in the experiment on HCT-116 colon, 18.1 µM; in the experiment with DU-145 prostate, 21.5 µM; in the experiment with U251 CNS, 23.9 µM. Further, the TGI in the experiment with SK-MEL-28 melanoma was 36.5 µM; with MOLT-4 leukemia it was over 100 µM; with SN12C renal, 25.4 µM; with NCI-H460 lung it was over 100 µM.

Consider `Cc1c(-c2ccc(O)cc2)oc(=O)c2ccc(O)cc12`, for which the GI50 in the experiment with SK-MEL-5 melanoma is 33.3 µM; with BT-549 breast it was 35.6 µM; in the experiment on SNB-19 CNS, over 100 µM; with HCT-116 colon, 38 µM; in the experiment on DU-145 prostate, 75.8 µM; in the experiment with U251 CNS, 63.8 µM. For the same compound, the GI50 with SK-MEL-28 melanoma is 60 µM; in the experiment with MOLT-4 leukemia, 73.7 µM; in the experiment on SN12C renal, 66.6 µM; in the experiment on NCI-H460 lung it was 45.3 µM. The TGI in the experiment with SK-MEL-5 melanoma, with BT-549 breast, in the experiment with SNB-19 CNS, with HCT-116 colon, in the experiment on DU-145 prostate and in the experiment on U251 CNS was over 100 µM each time. Moreover, the TGI in the experiment on SK-MEL-28 melanoma, in the experiment on MOLT-4 leukemia, in the experiment on SN12C renal and with NCI-H460 lung was over 100 µM in each case.

Take `COc1ccc(C(=O)O[C@H]2[C@H](O[C@H]3[C@@H](O)COC(O[C@H]4C[C@H]5[C@@H]6CC=C7C[C@@H](O)CC[C@]7(C)[C@H]6CC[C@]5(C)[C@H]4[C@H](C)C(=O)CCC(C)C)[C@@H]3OC(C)=O)OC[C@@H](O)[C@@H]2O)c(C)c1` (stereo not given in full): the GI50 is under 0.01 µM with SK-MEL-5 melanoma; under 0.01 µM with BT-549 breast; under 0.01 µM with SNB-19 CNS; under 0.01 µM in the experiment with HCT-116 colon; 1.26 µM in the experiment with DU-145 prostate; under 0.01 µM with U251 CNS. Moreover, the GI50 in the experiment on SK-MEL-28 melanoma is under 0.01 µM; with MOLT-4 leukemia, under 0.01 µM; in the experiment on SN12C renal it was 11.7 µM; in the experiment on NCI-H460 lung, under 0.01 µM. Further, the TGI in the experiment with SK-MEL-5 melanoma was determined as 0.0141 µM; in the experiment on BT-549 breast it was 10.7 µM; in the experiment on SNB-19 CNS, 10.3 µM; with HCT-116 colon, 15.8 µM; in the experiment with DU-145 prostate it was 36.4 µM; in the experiment with U251 CNS it was 18.7 µM. For the same compound, the TGI in the experiment with SK-MEL-28 melanoma is under 0.01 µM; with MOLT-4 leukemia, 11.2 µM; in the experiment on SN12C renal, 29.7 µM; in the experiment on NCI-H460 lung, 3.23 µM.
